# US20170253607A1, “LONG-ACTING HIV PROTEASE INHIBITOR” (Shionogi & Co., Ltd., priority 2014, published 2017)
# Target: HIV-1 PR (Human immunodeficiency virus type 1 group M subtype B, UniProt P04585)
# Assay: HIV-protease inhibitory activity assay (FRET peptide substrate)
# Format: biochemical
# Conditions: Test Example 1
# Method in brief: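 Inhibition of HIV-1 protease was measured as loss of fluorescence dequenching of a HiLyte Fluor 488/QXL 520 peptide at 2 μmol/L, pH 4.8, room temperature, 60 minute reaction. IC50 was derived by nonlinear four-parameter fitting.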
row,Compound,IC50
1,COc1ccc(S(=O)(=O)N(CC(C)C)CC(O)C(Cc2ccc(N(C)CC3CCCCC3c3sc4c(c3C(=O)O)CC(C)(C)CC4)cc2)NC(=O)OC2COC3(C)OCCC23)cc1 (centres unmarked) [Compound I-359],3.77 nM
2,COc1ccc(S(=O)(=O)N(CC(C)C)CC(O)C(Cc2ccc(OC3CN(c4cccc(-c5sc6c(c5C(=O)O)CC(C)(C)CC6)c4)C3)cc2)NC(=O)OC2COC3(C)OCCC23)cc1 (centres unmarked) [Compound I-360],4.54 nM
3,COc1ccc(S(=O)(=O)N(CC(C)C)CC(O)C(Cc2ccc(OC3CN(c4ccc(-c5sc6c(c5C(=O)O)CC(C)(C)CC6)cc4)C3)cc2)NC(=O)OC2COC3(C)OCCC23)cc1 (centres unmarked) [Compound I-361],6.22 nM
4,COc1ccc(S(=O)(=O)N(CC(C)C)CC(O)C(Cc2ccc(OC3CC(N(C)c4ccccc4-c4sc5c(c4C(=O)O)CC(C)(C)CC5)C3)cc2)NC(=O)OC2COC3(C)OCCC23)cc1 (centres unmarked) [Compound I-364],5.39 nM
5,COc1ccc(S(=O)(=O)N(CC2CCCC2)CC(O)C(Cc2ccc(OCCn3nc4c(c3C(=O)O)CC(C)(C)CC4)cc2)NC(=O)OC2COC3(C)OCCC23)cc1 (centres unmarked) [Compound I-366],2.72 nM
6,COc1ccc(S(=O)(=O)N(CC(C)C)CC(O)C(Cc2ccc(NCc3ccccc3-c3sc4c(c3C(=O)O)C(=O)CCC4)cc2)NC(=O)OC2COC3(C)OCCC23)cc1 (centres unmarked) [Compound I-367],2.61 nM
7,COc1ccc(S(=O)(=O)N(CC(C)C)CC(O)C(Cc2ccc(NCc3ccccc3-c3nc4n(c3C(=O)O)CCCC4)cc2)NC(=O)OC2COC3(C)OCCC23)cc1 (centres unmarked) [Compound I-368],2.11 nM
8,COc1ccc(S(=O)(=O)N(CC(C)C)CC(O)C(Cc2ccc(NCC3(c4ccc(-c5sc6c(c5C(=O)O)CC(C)(C)CC6)cc4)CCCCC3)cc2)NC(=O)OC2COC3(C)OCCC23)cc1 (centres unmarked) [Compound I-369],15.8 nM
9,COc1ccc(S(=O)(=O)N(CC(C)C)CC(O)C(Cc2ccc(N3CC(Oc4ccc(-c5sc6c(c5C(=O)O)CC(C)(C)CC6)cc4)C3)cc2)NC(=O)OC2COC3(C)OCCC23)cc1 (centres unmarked) [Compound I-370],5.02 nM
10,COc1ccc(S(=O)(=O)N(CC(C)C)CC(O)C(Cc2ccc(N(C)CC3CCCCC3c3sc4c(c3C(=O)O)CC(C)(C)CC4)cc2)NC(=O)OC2COC3(C)OCCC23)cc1 (centres unmarked) [Compound I-375],3.87 nM
11,CCN(C(=O)Nc1ccccc1-c1sc2c(c1C(=O)O)CC(C)(C)CC2)c1ccc(CC(NC(=O)OC2COC3(C)OCCC23)C(O)CN(CC(C)C)S(=O)(=O)c2ccc(OC)cc2)cc1 (centres unmarked) [Compound I-377],5.4 nM
12,COc1ccc(S(=O)(=O)N(CC(C)C)CC(O)C(Cc2ccc(NCC3=C(c4sc5c(c4C(=O)O)CC(C)(C)CC5)CCC3)cc2)NC(=O)OC2COC3(C)OCCC23)cc1 (centres unmarked) [Compound I-381],4.69 nM
13,COc1ccc(S(=O)(=O)N(CC(C)C)CC(O)C(Cc2ccc(OC3CC(N(C)c4ccccc4-c4sc5c(c4C(=O)O)CC(C)(C)CC5)C3)cc2)NC(=O)OC2COC3(C)OCCC23)cc1 (centres unmarked) [Compound I-382],7.26 nM
14,COc1ccc(S(=O)(=O)N(CC(C)C)CC(O)C(Cc2ccc(NC(C)c3ccccc3-c3sc4c(c3C(=O)O)CC(C)(C)CC4)cc2)NC(=O)OC2COC3(C)OCCC23)cc1 (centres unmarked) [Compound I-383],6.47 nM
15,COc1ccc(S(=O)(=O)N(CC(C)C)CC(O)C(Cc2ccc(OCC3=C(c4sc5c(c4C(=O)O)CC(C)(C)CC5)COC3)cc2)NC(=O)OC2COC3(C)OCCC23)cc1 (centres unmarked) [Compound I-385],1.25 nM
16,COc1ccc(S(=O)(=O)N(CC(C)C)CC(O)C(Cc2ccc(CN3CCc4c(cccc4-c4sc5c(c4C(=O)O)CC(C)(C)CC5)C3)cc2)NC(=O)OC2COC3(C)OCCC23)cc1 (centres unmarked) [Compound I-388],1.53 nM
17,COc1ccc(S(=O)(=O)N(CC(C)C)CC(O)C(Cc2ccc(N3CCN(c4ccccc4-c4sc5c(c4C(=O)O)CC(C)(C)CC5)C3=O)cc2)NC(=O)OC2COC3(C)OCCC23)cc1 (centres unmarked) [Compound I-390],1.84 nM
18,COc1ccc(S(=O)(=O)N(CC(C)C)CC(O)C(Cc2ccc(NCc3ccccc3-c3ccc4c(c3C(=O)O)CC(C)(C)CC4)cc2)NC(=O)OC2COC3(C)OCCC23)cc1 (centres unmarked) [Compound I-392],2.4 nM
19,COc1ccc(S(=O)(=O)N(CC(C)C)CC(O)C(Cc2ccc(NCC3(c4cccc(-c5sc6c(c5C(=O)O)CC(C)(C)CC6)c4)CCCC3)cc2)NC(=O)OC2COC3(C)OCCC23)cc1 (centres unmarked) [Compound I-393],14.5 nM
20,COc1ccc(S(=O)(=O)N(CC(C)C)CC(O)C(Cc2ccc(OCC3COCC3c3sc4c(c3C(=O)O)CC(C)(C)CC4)cc2)NC(=O)OC2COC3(C)OCCC23)cc1 (centres unmarked) [Compound I-394],1.64 nM
21,COc1ccc(S(=O)(=O)N(CC(C)C)CC(O)C(Cc2ccc(OCC3COCC3c3sc4c(c3C(=O)O)CC(C)(C)CC4)cc2)NC(=O)OC2COC3(C)OCCC23)cc1 (centres unmarked) [Compound I-395],1.86 nM
22,COc1ccc(S(=O)(=O)N(CC(C)C)CC(O)C(Cc2ccc(NCc3ccccc3C(=O)Nc3sc4c(c3C(=O)O)CC(C)(C)CC4)cc2)NC(=O)OC2COC3(C)OCCC23)cc1 (centres unmarked) [Compound I-397],2.64 nM

row,Compound,IC50
1,COc1ccc(S(=O)(=O)N(CC(C)C)CC(O)C(Cc2ccc(N(C)CC3COCCC3c3sc4c(c3C(=O)O)CC(C)(C)CC4)cc2)NC(=O)OC2COC3(C)OCCC23)cc1 (centres unmarked) [Compound I-400],1.69 nM
2,COc1ccc(S(=O)(=O)N(CC(C)C)CC(O)C(Cc2ccc(N(C)CC3COCCC3c3sc4c(c3C(=O)O)CC(C)(C)CC4)cc2)NC(=O)OC2COC3(C)OCCC23)cc1 (centres unmarked) [Compound I-401],1.77 nM
3,COc1ccc(S(=O)(=O)N(CC(C)C)CC(O)C(Cc2ccc(NCC3=C(c4sc5c(c4C(=O)O)CC(C)(C)CC5)CN(C(=O)O)C3)cc2)NC(=O)OC2COC3(C)OCCC23)cc1 (centres unmarked) [Compound I-402],1.89 nM
4,COc1ccc(S(=O)(=O)N(CC(C)C)CC(O)C(Cc2ccc(NCC3=C(c4sc5c(c4C(=O)O)CC(C)(C)CC5)CCN(C)C3)cc2)NC(=O)OC2COC3(C)OCCC23)cc1 (centres unmarked) [Compound I-403],2.3 nM
5,COc1ccc(S(=O)(=O)N(CC(C)C)CC(O)C(Cc2ccc(N(C)C3Cc4cccc(-c5sc6c(c5C(=O)O)CC(C)(C)CC6)c4C3)cc2)NC(=O)OC2COC3(C)OCCC23)cc1 (centres unmarked) [Compound I-404],1.88 nM
6,COC(=O)c1ccc(CNc2ccc(CC(NC(=O)OC3COC4(C)OCCC34)C(O)CN(CC(C)C)S(=O)(=O)c3ccc(OC)cc3)cc2)c(-c2sc3c(c2C(=O)O)CC(C)(C)CC3)c1 (centres unmarked) [Compound I-408],1.8 nM
7,COc1ccc(S(=O)(=O)N(CC(C)C)CC(O)C(Cc2ccc(NCc3ccccc3-c3c(C(=O)O)c4ccccc4n3C)cc2)NC(=O)OC2COC3(C)OCCC23)cc1 (centres unmarked) [Compound I-411],1.3 nM
8,COc1ccc(S(=O)(=O)N(CC(C)C)CC(O)C(Cc2ccc(N(C)Cc3ccccc3-c3c(C(=O)O)c4ccccc4n3C)cc2)NC(=O)OC2COC3(C)OCCC23)cc1 (centres unmarked) [Compound I-412],1.51 nM
9,COc1ccc(S(=O)(=O)N(CC(C)C)CC(O)C(Cc2ccc(NCc3ccc(C(=O)O)cc3-c3sc4c(c3C(=O)O)CC(C)(C)CC4)cc2)NC(=O)OC2COC3(C)OCCC23)cc1 (centres unmarked) [Compound I-413],1.84 nM
10,CNC(=O)c1ccc(CNc2ccc(CC(NC(=O)OC3COC4(C)OCCC34)C(O)CN(CC(C)C)S(=O)(=O)c3ccc(OC)cc3)cc2)c(-c2sc3c(c2C(=O)O)CC(C)(C)CC3)c1 (centres unmarked) [Compound I-416],1.63 nM
11,COc1ccc(S(=O)(=O)N(CC(C)C)CC(O)C(Cc2ccc(NCc3ccc(C(=O)N(C)C)cc3-c3sc4c(c3C(=O)O)CC(C)(C)CC4)cc2)NC(=O)OC2COC3(C)OCCC23)cc1 (centres unmarked) [Compound I-417],1.64 nM
12,COc1ccc(S(=O)(=O)N(CC(C)C)CC(O)C(Cc2ccc(N(Cc3ccco3)Cc3ccccc3-c3sc4c(c3C(=O)O)CC(C)(C)CC4)cc2)NC(=O)OC2COC3(C)OCCC23)cc1 (centres unmarked) [Compound I-420],13.1 nM
13,COc1ccc(S(=O)(=O)N(CC(C)C)CC(O)C(Cc2ccc(N(CCc3ccccc3)Cc3ccccc3-c3sc4c(c3C(=O)O)CC(C)(C)CC4)cc2)NC(=O)OC2COC3(C)OCCC23)cc1 (centres unmarked) [Compound I-421],14.7 nM
14,COc1ccc(S(=O)(=O)N(CC(C)C)CC(O)C(Cc2ccc(N(Cc3ccccc3-c3sc4c(c3C(=O)O)CC(C)(C)CC4)CC(C)C)cc2)NC(=O)OC2COC3(C)OCCC23)cc1 (centres unmarked) [Compound I-422],8.58 nM
15,COc1ccc(S(=O)(=O)N(CC(C)C)CC(O)C(Cc2ccc(N(Cc3cccnc3)Cc3ccccc3-c3sc4c(c3C(=O)O)CC(C)(C)CC4)cc2)NC(=O)OC2COC3(C)OCCC23)cc1 (centres unmarked) [Compound I-423],2.8 nM
16,COc1ccc(S(=O)(=O)N(CC(C)C)CC(O)C(Cc2ccc(N(Cc3ccoc3)Cc3ccccc3-c3sc4c(c3C(=O)O)CC(C)(C)CC4)cc2)NC(=O)OC2COC3(C)OCCC23)cc1 (centres unmarked) [Compound I-424],5.41 nM
17,COc1ccc(S(=O)(=O)N(CC(C)C)CC(O)C(Cc2ccc(N(Cc3ccncc3)Cc3ccccc3-c3sc4c(c3C(=O)O)CC(C)(C)CC4)cc2)NC(=O)OC2COC3(C)OCCC23)cc1 (centres unmarked) [Compound I-425],2.65 nM
18,COc1ccc(S(=O)(=O)N(CC(C)C)CC(O)C(Cc2ccc(N(CCCc3ccccc3)Cc3ccccc3-c3sc4c(c3C(=O)O)CC(C)(C)CC4)cc2)NC(=O)OC2COC3(C)OCCC23)cc1 (centres unmarked) [Compound I-426],8.1 nM
19,COc1ccc(S(=O)(=O)N(CC(C)C)CC(O)C(Cc2ccc(N(CCCC(F)(F)F)Cc3ccccc3-c3sc4c(c3C(=O)O)CC(C)(C)CC4)cc2)NC(=O)OC2COC3(C)OCCC23)cc1 (centres unmarked) [Compound I-427],10.4 nM
20,CCCCCCN(Cc1ccccc1-c1sc2c(c1C(=O)O)CC(C)(C)CC2)c1ccc(CC(NC(=O)OC2COC3(C)OCCC23)C(O)CN(CC(C)C)S(=O)(=O)c2ccc(OC)cc2)cc1 (centres unmarked) [Compound I-428],15.9 nM
21,COc1ccc(S(=O)(=O)N(CC(C)C)CC(O)C(Cc2ccc(N(CCN3CCOCC3)Cc3ccccc3-c3sc4c(c3C(=O)O)CC(C)(C)CC4)cc2)NC(=O)OC2COC3(C)OCCC23)cc1 (centres unmarked) [Compound I-429],2.21 nM
22,COc1ccc(S(=O)(=O)N(CC(C)C)CC(O)C(Cc2ccc(N(CCC(F)(F)F)Cc3ccccc3-c3sc4c(c3C(=O)O)CC(C)(C)CC4)cc2)NC(=O)OC2COC3(C)OCCC23)cc1 (centres unmarked) [Compound I-430],17.5 nM
